The target in one assay is T1, human CB2 (hCB2) (Homo sapiens, UniProt P34972).
T1 construct: (cDNA clone) CNR0200000
Description: 35S GTPγS binding assay, hCB2 agonist. The assay is classed as biochemical. The procedure: (§1) cDNA expression clones for human CB1 (hCB1, Genbank Accession No. AY225225) and human CB2 (hCB2, Genbank Accession No. AY242132) expressed in vector pcDNA3.1+ were purchased from UMR cDNA Resource Center, Rolla, Mo. (Clone ID CNR01L000 for hCB1; CNR0200000 for hCB2).
Membranes were isolated from transfected cells as follows. Monolayers of cultured cells were washed twice with phosphate-buffered saline (PBS). […] Homogenates were centrifuged 10 minutes at 1000×g at 4° C. The supernatant was collected and was centrifuged for 1 hour at 40,000×g. The supernatant was then decanted and the resulting pellet was re-suspended in 20 mM HEPES, pH 7.4, 5 mM MgCl2, 1 mM EDTA, 10% sucrose with complete cocktail protease inhibitors. Protein concentration of membrane suspensions were measured by Bradford Protein Assay using bovine serum albumin as the standard (BioRad catalog #500-0006). Protein concentrations of membrane suspensions were adjusted with the final buffer in the range of 5 to 10 mg/mL and were stored at −80° C. until further use.
(§2) Functional assays which monitor G-protein coupled receptor or downstream cellular responses can be used to characterize potential CB1 receptor and/or CB2 receptor agonist or antagonist activities. Direct activation (or inhibition of activation) can be monitored using a GTPγS assay (membrane-based assay) or cAMP assay (whole cell-based assay).
(§3) ^35S GTPγS binding assays were performed by incubating recombinant cell membranes prepared above (5 μg) in the presence of scintillation proximity assay beads (SPA beads, Catalog #RPNQ0252 GE Healthcare, Buckinghamshire, England) in GTPγS binding buffer [50 mM HEPES (pH 7.4), 100 mM NaCl, 5 mM MgCl2, 0.001% saponin (Sigma catalog #S4521)] supplemented with 20 uM GDP (Sigma catalog #G7127) in the presence or absence of test compound. The reaction was carried out in 96-well microplates with 0.1 nM [^35S]GTPγS (specific activity=1250 Ci/mmol; Perkin Elmer catalog #NEG030X250UC) in a final volume of 100 uL. After a 90 min room temperature incubation, the reaction was analyzed using a scintillation counter (Perkin Elmer Microbeta instrument). Binding data were analyzed using GraphPad Prism.

The target in another assay is T2, human CB1 receptors (Homo sapiens, UniProt P21554).
T2 construct: (cDNA clone) CNR01L000
Nature of the assay: cAMP assay in HEK-293 cells, hCB1 agonist. The format is cell-based. To be noted: inhibition of forskolin-stimulated cAMP, HEK-293 cells. The procedure, abridged:
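Agonist EC50 taken as concentration giving half inhibition of forskolin-driven cAMP, normalized to forskolin maximum, from sigmoidal curves. Whole HEK-293 cells stably expressing hCB1, in HEPES/BSA-containing HBSS, exposed 30 min at 37° C. to compound with forskolin (90 uM in 3× dilution); cAMP read after lysis.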

Assay [1] addresses T3, recombinant human cannabinoid receptor CB2 (Homo sapiens, UniProt P34972).
T3 construct: (cDNA clone) CNR0200000
Nature of the assay: Cannabinoid receptor radioligand binding assay, [3H]-CP 55,940 displacement, hCB2. The procedure, abridged:
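Receptor source: membrane pellet (40,000×g) from transfected cells, stored in HEPES pH 7.4/MgCl2/EDTA/sucrose buffer.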

The target of assay [2] is T4, recombinant human cannabinoid receptor CB1 (Homo sapiens, UniProt P21554).
T4 construct: (cDNA clone) CNR01L000
Description: Cannabinoid receptor radioligand binding assay, [3H]-CP 55,940 displacement, hCB1. From the text: (§4) Stable, HEK-293-derived cell lines that recombinantly express hCBI or hCB2 were established. In brief, the clone hCB1 (CNR IL) or hCB2 (CNR2) was transfected into human embryonic kidney cells (HEK-293) using Lipofectamine 2000 (Gibco, Cat#11668-019) according to the manufacturer's protocol. Transfected clones were isolated by single colony purification and clones were screened for receptor expression using a whole cell, ^3H—CP 55,940 radioligand binding assay. HEK-293 stable cells were maintained in Dulbecco's modified Eagles medium (DMEM) containing 10% fetal bovine serum, 2 mM L-glutamine and 0.5 mg/mL G-418.
(§5) Membranes were isolated from transfected cells as follows. Monolayers of cultured cells were washed twice with phosphate-buffered saline (PBS). Cells were scraped into 20 mM HEPES, pH 7.4, 10 mM EDTA containing complete cocktail protease inhibitors (Roche, Catalog #11 697 498 001) and were homogenized by an electric-powered mechanical probe homogenizer (Omni GLH; probe G7-195S) for 40 seconds at 7000 rpm. Homogenates were centrifuged 10 minutes at 1000×g at 4° C. The supernatant was collected and was centrifuged for 1 hour at 40,000×g. The supernatant was then decanted and the resulting pellet was re-suspended in 20 mM HEPES, pH 7.4, 5 mM MgCl2, 1 mM EDTA, 10% sucrose with complete cocktail protease inhibitors. Protein concentration of membrane suspensions were measured by Bradford Protein Assay using bovine serum albumin as the standard (BioRad catalog #500-0006). Protein concentrations of membrane suspensions were adjusted with the final buffer in the range of 5 to 10 mg/mL and were stored at −80° C. until further use.
Radioligand binding assays were performed by incubating membranes (2-10 μg protein) prepared from HEK-293 cells expressing recombinant human cannabinoid receptors, CB1 or CB2, at room temperature with 0.5 nM cannabinoid receptor agonist, [^3H]-CP 55,940 (Perkin Elmer, catalog #NET1051) in 0.2 mL of binding buffer (50 mM Tris-HCl, pH 7.5, 5 mM MgCl2, 2.5 mM EDTA) and 0.1% fatty acid free bovine serum albumin (Sigma Cat. #A0821) for 90 minutes. A rapid filtration technique using Millipore FB filter plates (Catalog #MADVNOB) and filtration apparatus (Millipore system Catalog MAVM0960R) with vacuum aspiration was used to harvest and rinse labeled membranes (8 times with 0.2 mL of chilled binding buffer). The radioactivity bound to the filters was counted with 0.05 mL of liquid scintillant (UltraGold MV, PerkinElmer catalog #6013159) in a scintillation counter (Perkin Elmer Microbeta instrument). Nonspecific binding was determined in the presence of unlabeled 1 μM CP 55,940 (Sigma Aldrich, catalog #C1112). Binding data were analyzed using GraphPad Prism (GraphPad Software, Inc. San Diego, Calif.).

In a further assay the target is T5, human CB1 (hCB1) (Homo sapiens, UniProt P21554).
T5 construct: (cDNA clone) CNR01L000
Nature of the assay: 35S GTPγS binding assay, hCB1 agonist. The format is biochemical. To be noted: GTPγS agonist, HEK-293 membranes; read-out: hCB1 EC50 (GTPyS ag).
Description: as §1, §4, §5, §2, §3
In general terms: GTPγS resists hydrolysis and so accumulates on activated G proteins.

The target in a further assay is T6, human CB2 receptors (Homo sapiens, UniProt P34972).
T6 construct: (cDNA clone) CNR0200000
Description: cAMP assay in HEK-293 cells, hCB2 agonist. The format is cell-based. The method in brief:
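Stable hCB2 HEK-293 cells in HBSS/10 mM HEPES/0.1% fatty-acid-free BSA incubated 30 min at 37° C with compound; forskolin 90 uM in 3× compound mix.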

Where [3] appears, read: GTPγS agonist, HEK-293 membranes, read-out: hCB2 EC50 (GTPyS ag).

pEC50, pIC50: −log10 of the molar value. Where two headings read alike, the source gives them in different places. Bounds are passed on as bounds.

11 molecules from patent US20130029970A1 (priority 2009, published 2013) can be followed below.

T5 sequence (P21554 whole entry): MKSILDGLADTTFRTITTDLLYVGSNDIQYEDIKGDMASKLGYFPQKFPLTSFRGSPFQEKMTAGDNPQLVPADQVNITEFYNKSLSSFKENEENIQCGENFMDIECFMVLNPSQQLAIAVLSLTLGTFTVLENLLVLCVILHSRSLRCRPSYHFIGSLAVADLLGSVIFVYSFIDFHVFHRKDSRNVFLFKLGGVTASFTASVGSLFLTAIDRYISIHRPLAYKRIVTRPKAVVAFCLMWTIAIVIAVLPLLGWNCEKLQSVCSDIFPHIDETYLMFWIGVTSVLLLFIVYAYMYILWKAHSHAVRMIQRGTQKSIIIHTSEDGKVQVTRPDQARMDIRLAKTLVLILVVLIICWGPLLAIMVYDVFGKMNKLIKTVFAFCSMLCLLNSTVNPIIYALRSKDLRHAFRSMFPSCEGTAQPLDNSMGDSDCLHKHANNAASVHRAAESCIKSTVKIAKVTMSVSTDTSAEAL
T2 sequence (P21554 whole entry): as above
T1 sequence (P34972 whole entry): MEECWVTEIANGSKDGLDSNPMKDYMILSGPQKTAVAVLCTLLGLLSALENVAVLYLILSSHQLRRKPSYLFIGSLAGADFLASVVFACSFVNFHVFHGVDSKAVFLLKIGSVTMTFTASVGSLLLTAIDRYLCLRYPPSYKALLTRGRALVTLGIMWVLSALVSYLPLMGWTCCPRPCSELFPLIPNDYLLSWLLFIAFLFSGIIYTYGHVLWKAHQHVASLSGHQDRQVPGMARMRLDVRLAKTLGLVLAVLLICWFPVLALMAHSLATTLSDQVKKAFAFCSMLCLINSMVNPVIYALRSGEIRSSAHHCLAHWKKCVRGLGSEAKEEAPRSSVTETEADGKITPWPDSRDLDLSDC
T6 sequence (P34972 whole entry): as above
T4 sequence (P21554 whole entry): as the sequence (P21554 whole entry) above
T3 sequence (P34972 whole entry): as the sequence (P34972 whole entry) above

In the case of `COc1ccc(C(=O)c2cc3cc(C)n(CCCN(C)S(C)(=O)=O)c3s2)cc1` [Compound 69, N-(3-(2-(4-Methoxybenzoyl)-5-methyl-6H-thieno[2,3-b]pyrrol-6-yl)propyl)-N-methylmethanesulfonamide], the pEC50 (as a rule, −log10 of the EC50, conventionally taken in molar units) on human CB2 (hCB2) is 6.00 to 7.00. Further, on human CB1 receptors, the “hCB1 EC50 (cAMP ag, nM)” value is listed as “NS (NS means “Not Significant,” which means less than 30% agonist activity when compared to the positive control.)”. Also, the pIC50 (commonly the IC50 on a negative log10 scale, so that one unit is a factor of ten) in assay [1] was 5.00 to 6.00; in assay [2], under 5.00.
On to `COc1ccc(C(=O)c2cc3cc(C)n(C(=S)SC)c3s2)cc1` [Compound 155, Methyl 2-(4-methoxybenzoyl)-5-methyl-6H-thieno[2,3-b]pyrrole-6-carbodithioate], for which the figures for the pEC50 at human CB2 (hCB2) (setting [3]) and on human CB1 (hCB1) were 6.00 to 7.00 and under 5.00, respectively. The “hCB1 EC50 (cAMP ag, nM)” value on human CB1 receptors is reported as “NS (NS means “Not Significant,” which means less than 30% agonist activity when compared to the positive control.)”.
In the case of `COc1ccc(C(=O)c2cc3cc(C)n(CCN4CCC(OC)CC4)c3s2)cn1` [Compound 156, (6-(2-(4-methoxypiperidin-1-yl)ethyl)-5-methyl-6H-thieno[2,3-b]pyrrol-2-yl)(6-methoxypyridin-3-yl)methanone], the pEC50 on human CB2 (hCB2) and on human CB1 (hCB1) was under 5.00 throughout. In addition, at human CB1 receptors, the “hCB1 EC50 (cAMP ag, nM)” value is reported as “NS (NS means “Not Significant,” which means less than 30% agonist activity when compared to the positive control.)”.
For `COc1ccc(C(=O)c2cc3cc(C)n(CC4CCOC4)c3s2)cn1` (stereo not shown) [Compound 159, (6-methoxypyridin-3-yl)(5-methyl-6-((tetrahydrofuran-3-yl)methyl)-6H-thieno[2,3-b]pyrrol-2-yl)methanone], the pEC50 at human CB2 (hCB2) is under 5.00; on human CB1 (hCB1), under 5.00; at human CB2 receptors it was 5.00 to 6.00. The “hCB1 EC50 (cAMP ag, nM)” value at human CB1 receptors was “NS (NS means “Not Significant,” which means less than 30% agonist activity when compared to the positive control.)”.
As to `COc1ccc(C(=O)c2cc3cc(C)n(CCN4CCOC(C)(C)C4)c3s2)cn1` [Compound 162, (6-(2-(2,2-dimethylmorpholino)ethyl)-5-methyl-6H-thieno[2,3-b]pyrrol-2-yl)(6-methoxypyridin-3-yl)methanone], the pEC50 was under 5.00 on human CB2 (hCB2) (setting [3]); under 5.00 at human CB1 (hCB1); 6.00 to 7.00 at human CB2 receptors (inhibition of forskolin-stimulated cAMP, HEK-293 cells, read-out: hCB2 EC50 (cAMP ag)). Moreover, at human CB1 receptors, the “hCB1 EC50 (cAMP ag, nM)” value was “NS (NS means “Not Significant,” which means less than 30% agonist activity when compared to the positive control.)”.
Take `COc1ccc(C(=O)c2cc3cc(C)n(CCNC4CCOCC4)c3s2)cn1` [Compound 163, (6-methoxypyridin-3-yl)(5-methyl-6-(2-((tetrahydro-2H-pyran-4-yl)amino)ethyl)-6H-thieno[2,3-b]pyrrol-2-yl)methanone]: the pEC50 on human CB2 (hCB2) is 5.00 to 6.00; on human CB1 (hCB1) it was under 5.00; on human CB2 receptors it was 6.00 to 7.00. Further, on human CB1 receptors, the “hCB1 EC50 (cAMP ag, nM)” value is listed as “NS (NS means “Not Significant,” which means less than 30% agonist activity when compared to the positive control.)”.
As for `COC(=O)Cn1c(C)cc2cc(C(=O)c3ccc(OC)nc3)sc21` [Compound 168, Methyl 2-(2-(6-methoxynicotinoyl)-5-methyl-6H-thieno[2,3-b]pyrrol-6-yl)acetate], the pEC50 on human CB2 (hCB2) (setting [3]) and at human CB1 (hCB1) was under 5.00 throughout. On human CB1 receptors, the “hCB1 EC50 (cAMP ag, nM)” value is “NS (NS means “Not Significant,” which means less than 30% agonist activity when compared to the positive control.)”.
Take `COc1ccc(C(=O)c2cc3cc(C)n(C[C@@H]4COCCN4C)c3s2)cn1` [Compound 171, (R)-(6-methoxypyridin-3-yl)(5-methyl-6-((4-methylmorpholin-3-yl)methyl)-6H-thieno[2,3-b]pyrrol-2-yl)methanone]: the negative-log EC50 (pEC50) on human CB2 (hCB2) and on human CB1 (hCB1) was under 5.00 throughout. Also, at human CB1 receptors, the “hCB1 EC50 (cAMP ag, nM)” value is “NS (NS means “Not Significant,” which means less than 30% agonist activity when compared to the positive control.)”.
Take `COc1ccc(C(=O)c2cc3cc(C)n(C)c3s2)cn1` [Compound 174, (5,6-dimethyl-6H-thieno[2,3-b]pyrrol-2-yl)(6-methoxypyridin-3-yl)methanone]: the pEC50 at human CB2 (hCB2) (setting [3]) and on human CB1 (hCB1) was under 5.00 throughout. The “hCB1 EC50 (cAMP ag, nM)” value at human CB1 receptors is listed as “NS (NS means “Not Significant,” which means less than 30% agonist activity when compared to the positive control.)”.
For `COc1ccc(C(=O)c2cc3cc(C)n(CC4CCN(C(=O)OC(C)(C)C)CC4)c3s2)cn1` [Compound 179, tert-butyl 4((2-(6-methoxynicotinoyl)-5-methyl-6H-thieno[2,3-b]pyrrol-6-yl)methyl)piperidine-1-carboxylate], the pEC50 at human CB2 (hCB2) (setting [3]) and on human CB1 (hCB1) was under 5.00 in each case. For the same molecule, the “hCB1 EC50 (cAMP ag, nM)” value at human CB1 receptors is listed as “NS (NS means “Not Significant,” which means less than 30% agonist activity when compared to the positive control.)”.
With `COc1ccc(C(=O)c2cc3cc(C)n(CCN4CCC(C(F)(F)F)CC4)c3s2)cn1` [Compound 181, (6-methoxypyridin-3-yl)(5-methyl-6-(2-(4-(trifluoromethyl)piperidin-1-yl)ethyl)-6H-thieno[2,3-b]pyrrol-2-yl)methanone], the pEC50 is 6.00 to 7.00 at human CB2 (hCB2) and 5.00 to 6.00 on human CB1 (hCB1). At human CB2 receptors (inhibition of forskolin-stimulated cAMP, HEK-293 cells), the “hCB2 EC50 (cAMP ag, nM)” value is on record as “NS (NS means “Not Significant,” which means less than 30% agonist activity when compared to the positive control.)”.
